For this test, the target named is T1, NLRP3 inflammasome (Homo sapiens, UniProt Q96P20).
T1 construct: host or cells: THP1-Null cells (PMA-differentiated, LPS-primed, nigericin-stimulated)
Nature of the test: Evaluation of NLRP3 inflammasome inhibitory activity (inhibition of IL-1β production in LPS/Nigericin-stimulated THP1-Null cells, AlphaLISA). The following applies: IL-1β production in THP1-Null cells, PMA, 1 µg/mL Lipopolysaccharides 3 hours, Nigericin 7.5 µmol/L 1.5 hours. The class given is cell-based. On the procedure:
The NLRP3 inflammasome inhibitory activity of test compounds were evaluated on the basis of the inhibitory activity of the IL-1β production in THP1-Null cells (Product Number: thp-null, InvivoGen).
The supernatant of the culture was removed, and thereto was added media for assay (25 µL/well) containing 1 µg/mL Lipopolysaccharides (Product Number: L2654, Sigma-Aldrich (registered trademark)). […] The supernatant of the culture was removed. […] A solution containing a test compound (20 µL/well) was added to test compound-setting wells. […] The supernatant of the culture was cryonically stored (set at -20°C) until measurement of IL-1β.
The amount of IL-1β in the culture supernatant was quantitated with AlphaLISA (registered trademark) Human IL-1β Detection Kit (Product Number: AL220C, Perkin Elmer). Fluorescence intensity was measured with a microplate reader EnSpier (Model number: 2300-00J, Perkin Elmer) or EnSight (Model number: HH34000000, Perkin Elmer) according to procedure manuals attached thereto. Inhibition rates of the test compound-setting wells were calculated on the basis of 100% for the blank-setting wells and 0% for the control-setting wells.
A general note: Alpha assays give light when donor and acceptor beads are brought close together.

Read-outs that look alike come from different tables or passages of the source.

T1 sequence (Q96P20 whole entry): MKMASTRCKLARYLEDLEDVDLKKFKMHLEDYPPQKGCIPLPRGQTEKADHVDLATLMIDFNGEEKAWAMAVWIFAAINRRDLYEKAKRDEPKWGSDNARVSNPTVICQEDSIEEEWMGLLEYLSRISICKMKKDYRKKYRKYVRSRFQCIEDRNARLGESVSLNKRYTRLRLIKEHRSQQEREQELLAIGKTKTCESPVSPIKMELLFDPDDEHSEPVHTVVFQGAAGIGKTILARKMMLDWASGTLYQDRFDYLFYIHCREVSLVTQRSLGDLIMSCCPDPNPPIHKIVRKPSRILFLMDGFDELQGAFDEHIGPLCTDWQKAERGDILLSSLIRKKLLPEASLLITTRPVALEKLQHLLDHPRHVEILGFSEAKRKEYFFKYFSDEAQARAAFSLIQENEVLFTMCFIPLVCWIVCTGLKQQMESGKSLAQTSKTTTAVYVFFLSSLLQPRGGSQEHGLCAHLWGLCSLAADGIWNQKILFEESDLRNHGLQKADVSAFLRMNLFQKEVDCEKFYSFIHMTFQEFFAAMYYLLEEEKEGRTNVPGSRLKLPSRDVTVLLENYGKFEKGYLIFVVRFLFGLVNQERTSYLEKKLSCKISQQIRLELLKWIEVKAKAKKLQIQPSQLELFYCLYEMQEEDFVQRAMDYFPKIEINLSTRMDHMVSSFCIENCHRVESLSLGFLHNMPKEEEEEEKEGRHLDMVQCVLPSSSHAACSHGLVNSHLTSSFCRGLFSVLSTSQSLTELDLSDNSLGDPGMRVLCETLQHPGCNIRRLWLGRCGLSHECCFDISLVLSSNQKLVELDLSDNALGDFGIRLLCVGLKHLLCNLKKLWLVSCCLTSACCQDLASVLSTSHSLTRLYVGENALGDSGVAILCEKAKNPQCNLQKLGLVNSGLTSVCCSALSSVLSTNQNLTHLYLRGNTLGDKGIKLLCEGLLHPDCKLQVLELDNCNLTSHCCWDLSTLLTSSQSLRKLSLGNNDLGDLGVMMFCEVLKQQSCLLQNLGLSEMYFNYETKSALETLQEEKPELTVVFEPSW

By IC50 is commonly meant the concentration that inhibits the measured activity by half. The compound `Cc1cc(C(C)(F)F)cc(C)c1-n1cc2c(=O)[nH]c(C3CCOCCO3)nc2n1` (racemic) [Example 168] had an IC50 of 74 nM.

For `Cc1cc(OC(F)F)cc(C)c1-n1cc2c(=O)[nH]c([C@@H]3C[C@H]3F)nc2n1` (racemic) [Example 171], the IC50 came to 24 nM.

With `Cc1cc(Br)cc(C)c1-n1cc2c(=O)[nH]c(C3CC(F)(F)CCO3)nc2n1` (racemic) [Example 184], where the note is “read-out: IC50”, the IC50 stood at 51 nM.

As to `Cc1cc(Br)cc(C)c1-n1cc2c(=O)[nH]c(C3CC(F)(F)CO3)nc2n1` (racemic) [Example 189], the IC50 (read-out: IC50) was 71 nM.

With `Cc1cc(C2CC2)cc(C)c1-n1cc2c(=O)[nH]c(C3CC(F)(F)CO3)nc2n1` (racemic) [Example 190], the IC50 (read-out: IC50) was determined as 41 nM.

For the compound `Cc1cc(Br)cc(C)c1-n1cc2c(=O)[nH]c(C3CCC(F)(F)CO3)nc2n1` (racemic) [Example 191], the IC50 (read-out: IC50) is 72 nM.

For `Cc1cc(C2CC2)cc(C)c1-n1cc2c(=O)[nH]c(C3CC(F)(F)CCO3)nc2n1` (racemic) [Example 197], the IC50 (read-out: IC50) was 36 nM.

In turn, `Cc1cc(C2CC2)cc(C)c1-n1cc2c(=O)[nH]c(C3CCOC3)nc2n1` (single isomer, unassigned) [Example 50] yielded an IC50 of 5 nM.

Consider `Cc1cc(C2CC2)cc(C)c1-n1cc2c(=O)[nH]c(C3CCOC3)nc2n1` (single isomer, unassigned) [Example 51], for which half-maximal inhibition (IC50) was put at 24 nM.

The compound `Cc1cc(C2CC2)cc(C)c1-n1cc2c(=O)[nH]c(C3(F)CCOC3)nc2n1` (single isomer, unassigned) [Example 78] yielded an IC50 of 33 nM.

In turn, `Cc1cc(C2CC2)cc(C)c1-n1cc2c(=O)[nH]c(C3(F)CCOC3)nc2n1` (single isomer, unassigned) [Example 79] displayed an IC50 of 75 nM.

`Cc1cc(Br)cc(C)c1-n1cc2c(=O)[nH]c(C3CCOCC3O)nc2n1` (single isomer, unassigned) [Example 104]: where the note is “read-out: IC50”, the IC50 amounted to 15 nM.

For the compound `COC1CC(c2nc3nn(-c4c(C)cc(Br)cc4C)cc3c(=O)[nH]2)C1` (single isomer, unassigned) [Example 121], the IC50 worked out at 38 nM.

`COC1CC(c2nc3nn(-c4c(C)cc(Br)cc4C)cc3c(=O)[nH]2)C1` (single isomer, unassigned) [Example 122] had an IC50 of 61 nM.

Turning to `Cc1cc(C(C)(F)F)cc(C)c1-n1cc2c(=O)[nH]c(C3(F)CCOC3)nc2n1` (single isomer, unassigned) [Example 129], the half-maximal inhibitory concentration (IC50) came to 50 nM.

`Cc1cc(C(C)(F)F)cc(C)c1-n1cc2c(=O)[nH]c(C3(F)CCOC3)nc2n1` (single isomer, unassigned) [Example 130] displayed an IC50 of 240 nM.

On to `Cc1cc(C(C)(F)F)cc(C)c1-n1cc2c(=O)[nH]c([C@@H]3C[C@H]3F)nc2n1` (single isomer, unassigned) [Example 146], for which, for the setting “read-out: IC50”, the IC50 was 15 nM.

As for `Cc1cc(C(C)(F)F)cc(C)c1-n1cc2c(=O)[nH]c([C@H]3C[C@@H]3F)nc2n1` (single isomer, unassigned) [Example 147], the IC50 (read-out: IC50) is 24 nM.

As for `Cc1cc(C(C)(F)F)cc(C)c1-n1cc2c(=O)[nH]c([C@@H](C)O)nc2n1` (single isomer, unassigned) [Example 154], for the setting “read-out: IC50”, the IC50 was determined as 25 nM.

For the compound `Cc1cc(C(C)(F)F)cc(C)c1-n1cc2c(=O)[nH]c([C@H](C)O)nc2n1` (single isomer, unassigned) [Example 155], the IC50 (read-out: IC50) turned out to be 610 nM.

Compound `Cc1cc(C2CC2)cc(C)c1-n1cc2c(=O)[nH]c(C(C)O)nc2n1` (single isomer, unassigned) [Example 156] registered an IC50 of 13 nM.

`Cc1cc(C2CC2)cc(C)c1-n1cc2c(=O)[nH]c(C(C)O)nc2n1` (single isomer, unassigned) [Example 157] gave an IC50 of 340 nM.

For the compound `Cc1cc(OC(F)F)cc(C)c1-n1cc2c(=O)[nH]c([C@@H](C)O)nc2n1` (single isomer, unassigned) [Example 165], the IC50 (read-out: IC50) is 75 nM.

For the origin of these results see EP4671247A1, “SUBSTITUTED PYRAZOLOPYRIMIDINE COMPOUND AND PHARMACEUTICAL USE THEREOF” (Japan Tobacco Inc., priority 2023, dated 2024).
